# Measurements taken from patent publication US9687479B2, “Multisubstituted aromatic compounds as serine protease inhibitors” (VERSEON CORPORATION, priority 2013, dated 2017).
# Biological target: Human KLKB1 (Homo sapiens (Human), UniProt P03952)
# Assay: KLKB1 kallikrein activity inhibition assay (chromogenic substrate S-2302)
# Assay type: biochemical
# Details: 3 nM KLKB1, 250 μM S-2302, 10 min pre-incubation, RT
# Method: The KLKB1 kallikrein activity reported herein (e.g., Tables B, C, and D) was obtained as follows. Human KLKB1 protein was obtained from Enzyme Research Labs. […] KLKB1 was assayed in buffer containing 0.05 M Tris (pH 7.4), 0.01 M NaCl and 0.2% w/v PEG-8000. The final concentration of enzyme used was 3 nM KLKB1. […] All assays were performed in 96-well microtiter plates at room temperature (RT). […] Inhibitor IC50 values were determined by adding test compound as ten point, three-fold serial dilutions in buffer solution, as known in the art. The plate was read at 10 minutes after substrate addition. The IC50 was calculated by plotting the percent (%) inhibition against compound concentration and fitting the data to a constrained four parameter sigmoidal curve, as known in the art.
# Human KLKB1, sequence (P03952 391-638 limits assumed): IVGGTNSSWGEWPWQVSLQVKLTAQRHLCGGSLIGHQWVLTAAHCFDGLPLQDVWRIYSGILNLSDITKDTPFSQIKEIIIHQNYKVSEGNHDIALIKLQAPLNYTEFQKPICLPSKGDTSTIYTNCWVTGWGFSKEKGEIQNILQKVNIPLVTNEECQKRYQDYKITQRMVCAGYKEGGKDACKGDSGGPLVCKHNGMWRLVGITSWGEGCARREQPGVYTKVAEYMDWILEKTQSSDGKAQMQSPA
# Human KLKB1, sequence (P03952 20-390 partner limits assumed): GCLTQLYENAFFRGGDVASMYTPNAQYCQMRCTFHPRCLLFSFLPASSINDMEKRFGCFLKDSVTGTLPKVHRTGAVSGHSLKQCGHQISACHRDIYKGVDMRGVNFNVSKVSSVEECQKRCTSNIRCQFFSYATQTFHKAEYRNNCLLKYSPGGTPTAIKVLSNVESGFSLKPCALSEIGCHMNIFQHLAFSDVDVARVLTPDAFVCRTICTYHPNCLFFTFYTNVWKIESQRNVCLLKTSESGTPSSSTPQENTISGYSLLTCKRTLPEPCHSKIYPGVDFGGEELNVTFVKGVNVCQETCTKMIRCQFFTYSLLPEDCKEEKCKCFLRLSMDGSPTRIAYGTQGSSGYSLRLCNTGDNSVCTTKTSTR
row,SMILES,IC50 [µM]
1,"O=C(NCc1ccc2[nH]cc(Cl)c2c1)[C@@H]1CC(=O)N(Cc2ccc(Cl)cc2)C1 [Cmpd 414, (3R)-N-[(3-chloro-1H-indol-5-yl)methyl]-1-[(4-chlorophenyl)methyl]-5-oxopyrrolidine-3-carboxamide]",> 100
2,"Cc1cc(N(C)c2ccccc2Cl)nc(N[C@H]2CCc3c(N)cccc3C2)n1 [Cmpd 423, 2-N-[(2S)-5-amino-1,2,3,4-tetrahydronaphthalen-2-yl]-4-N-(2-chlorophenyl)-4-N,6-dimethylpyrimidine-2,4-diamine]",10 to 100
3,"Cc1cc(N(C)c2ccc(F)cc2)nc(N[C@@H]2CCc3c(N)cccc3C2)n1 [Cmpd 421, 2-N-[(2R)-5-amino-1,2,3,4-tetrahydronaphthalen-2-yl]-4-N-(4-fluorophenyl)-4-N,6-dimethylpyrimidine-2,4-diamine]",> 100
4,"Cn1cc(Cl)c2cc(CNC(=O)[C@H]3CC(=O)N(Cc4ccc(Cl)cc4)C3)ccc21 [Cmpd 416, (3S)-N-[(3-chloro-1-methyl-1H-indol-5-yl)methyl]-1-[(4-chlorophenyl)methyl]-5-oxopyrrolidine-3-carboxamide]",10 to 100
5,"O=C(NCc1ccc2[nH]cc(Cl)c2c1)[C@H]1CC(=O)N(Cc2ccccc2Cl)C1 [Cmpd 417, (3S)-N-[(3-chloro-1H-indol-5-yl)methyl]-1-[(2-chlorophenyl)methyl]-5-oxopyrrolidine-3-carboxamide]",10 to 100

# Same assay, conditions: Table B
row,SMILES,IC50 [µM]
1,CCC(=O)n1nc(-c2ccccc2)cc1NCc1ccc(F)cc1 [Cmpd 268],> 100
2,O=C(c1ccoc1)n1nc(-c2ncccc2F)cc1NCc1ccc(Cl)s1 [Cmpd 291],> 100
3,COc1ccccc1C(=O)n1nc(-c2ccccn2)cc1NCc1cccs1 [Cmpd 278],> 100
4,COc1ccccc1C(=O)n1nc(-c2ccccn2)cc1NCc1ccco1 [Cmpd 283],> 100
5,CC(C)(CO)C(=O)n1nc(-c2ccccc2)c(F)c1NCc1ccc(Cl)s1 [Cmpd 275],> 100
6,CC(C)(C)C(=O)n1nc(-c2ccccn2)c(F)c1NCc1ccccc1 [Cmpd 279],> 100
7,COc1ccccc1C(=O)n1nc(-c2ncccc2F)cc1NCc1ccc(Cl)s1 [Cmpd 290],> 100
8,COc1ccccc1C(=O)n1nc(C2CCOCC2)cc1NCc1ccc(Cl)s1 [Cmpd 284],> 100
9,CC(C)(C)C(=O)n1nc(-c2ncccc2F)cc1NCc1ccc(Cl)s1 [Cmpd 269],> 100

# Same assay, conditions: Table C
row,SMILES,IC50 [µM]
1,O=C(c1ccsc1)n1nc(-c2ccccn2)nc1NCc1ccccc1 [Cmpd 405],10 to 100
2,CCC(=O)n1nc(-c2ccncc2)nc1NCc1ccccc1 [Cmpd 356],> 100
3,COc1ccc(CNc2nc(-c3cccnc3)nn2C(=O)CC(C)C)cc1 [Cmpd 328],> 100
4,COc1ccc(CNc2nc(-c3ccccn3)nn2C(=O)c2ccoc2)cc1 [Cmpd 338],10 to 100
5,O=C(Cc1ccccc1)n1nc(-c2cccnc2)nc1NCc1ccc(F)cc1 [Cmpd 311],1 to 10
6,COc1ccccc1C(=O)n1nc(-c2cccs2)nc1NCc1ccccc1 [Cmpd 398],1 to 10
7,COc1ccc(CNc2nc(-c3cccnc3)nn2C(=O)C(C)(C)C)cc1 [Cmpd 326],> 100
8,O=C(CCc1ccccc1)n1nc(-c2ccncc2)nc1NCc1ccccc1 [Cmpd 354],> 100
9,O=C(c1cccs1)n1nc(-c2ccccn2)nc1NCc1ccc(F)cc1 [Cmpd 10],1 to 10
10,CCCC(=O)n1nc(-c2cccnc2)nc1NCc1ccc(F)cc1 [Cmpd 314],10 to 100
11,O=C(c1cccs1)n1nc(-c2ccncc2)nc1NCc1ccccc1 [Cmpd 406],> 100
12,CC(C)CC(=O)n1nc(-c2ccccn2)nc1NCc1ccccc1 [Cmpd 346],10 to 100
13,COc1ccccc1C(=O)n1nc(C2CCN(C(=O)C(C)(C)C)CC2)nc1NCc1ccc(Cl)s1 [Cmpd 341],0.1 to 1
14,O=C(c1ccsc1)n1nc(-c2ccncc2)nc1NCc1ccc(F)cc1 [Cmpd 11],1 to 10
15,COc1ccc(CNc2nc(-c3cccnc3)nn2C(=O)CCc2ccccc2)cc1 [Cmpd 329],> 100
16,O=C(c1ccoc1)n1nc(-c2ccccn2)nc1NCc1ccc(F)cc1 [Cmpd 371],1 to 10
17,CCCC(=O)n1nc(-c2ccccn2)nc1NCc1ccc(F)cc1 [Cmpd 306],10 to 100
18,O=C(c1c(F)cccc1F)n1nc(-c2ccccn2)nc1NCc1ccccc1 [Cmpd 394],> 100
19,O=C(c1ccco1)n1nc(-c2ccccn2)nc1NCc1ccc(F)cc1 [Cmpd 369],1 to 10
20,O=C(c1ccco1)n1nc(-c2ccccn2)nc1NCc1ccccc1 [Cmpd 8],1 to 10
21,COc1ccccc1C(=O)n1nc(-c2ccco2)nc1NCc1ccccc1 [Cmpd 403],1 to 10
22,CC(C)C(=O)n1nc(-c2ccncc2)nc1NCc1ccc(F)cc1 [Cmpd 315],10 to 100

row,SMILES,IC50 [µM]
1,O=C(c1ccc(Cl)cc1)n1nc(-c2ccccn2)nc1NCc1ccccc1 [Cmpd 399],0.1 to 1
2,COc1ccccc1C(=O)n1nc(C2CCCO2)nc1NCc1ccc(Cl)s1 (centres unmarked) [Cmpd 386],0.1 to 1
3,COc1ccccc1C(=O)n1nc(C2CN(C(=O)OC(C)(C)C)C2)nc1NCc1ccc(Cl)s1 [Cmpd 411],0.1 to 1
4,COc1ccc(CNc2nc(-c3ccccn3)nn2C(=O)CC(C)C)cc1 [Cmpd 322],10 to 100
5,CCCC(=O)n1nc(-c2ccncc2)nc1NCc1ccc(F)cc1 [Cmpd 317],> 100
6,COc1ccccc1C(=O)n1nc(-c2ccccn2)nc1NCc1ccc(F)cc1 [Cmpd 367],1 to 10
7,O=C(Oc1ccccc1)n1nc(-c2cccnc2)nc1NCc1ccc(F)cc1 [Cmpd 409],> 100
8,O=C(c1ccsc1)n1nc(-c2ccccn2)nc1NCc1ccc(F)cc1 [Cmpd 375],0.1 to 1
9,CC(C)C(=O)n1nc(-c2cccnc2)nc1NCc1ccc(F)cc1 [Cmpd 310],10 to 100
10,O=C(c1ccoc1)n1nc(-c2ccncc2)nc1NCc1ccc(F)cc1 [Cmpd 373],> 100
11,O=C(c1ccccc1Cl)n1nc(-c2ccccn2)nc1NCc1ccccc1 [Cmpd 395],0.1 to 1
12,COc1ccc(CNc2nc(-c3ccccn3)nn2C(=O)c2cccs2)cc1 [Cmpd 379],> 100
13,CC(C)CC(=O)n1nc(-c2cccnc2)nc1NCc1ccc(F)cc1 [Cmpd 312],10 to 100
14,O=C(c1ccoc1)n1nc(-c2ccccn2)nc1NCc1ccccc1 [Cmpd 401],> 100
15,COc1ccccc1C(=O)n1nc(-c2ccncn2)nc1NCc1ccccc1 [Cmpd 16],0.1 to 1
16,COc1ccc(CNc2nc(-c3cccnc3)nn2C(=O)c2ccsc2)cc1 [Cmpd 382],1 to 10
17,COc1ccccc1C(=O)n1nc(-c2cncnc2)nc1NCc1ccccc1 [Cmpd 17],0.1 to 1
18,CC(C)(C)OC(=O)n1nc(-c2cccnc2)nc1NCc1ccc(F)cc1 [Cmpd 413],> 100
19,CC(C)OC(=O)n1nc(-c2cccnc2)nc1NCc1ccc(F)cc1 [Cmpd 410],> 100
20,CC(C)C(=O)n1nc(-c2ccncc2)nc1NCc1ccccc1 [Cmpd 351],1 to 10
21,O=C(CCc1ccccc1)n1nc(-c2ccccn2)nc1NCc1ccc(F)cc1 [Cmpd 305],10 to 100
22,O=C(c1ccoc1)n1nc(C2CCCO2)nc1NCc1ccc(Cl)s1 (centres unmarked) [Cmpd 392],0.1 to 1

row,SMILES,IC50 [µM]
1,O=C(Cc1ccccc1)n1nc(-c2ccccn2)nc1NCc1ccc(F)cc1 [Cmpd 303],1 to 10
2,CCC(=O)n1nc(-c2ccccn2)nc1NCc1ccccc1 [Cmpd 348],10 to 100
3,COc1ccccc1C(=O)n1nc(-c2cccnc2)nc1NCc1ccc(F)cc1 [Cmpd 368],1 to 10
4,COc1ccccc1C(=O)n1nc(C2CN(S(=O)(=O)N3CCCC3)C2)nc1NCc1ccc(Cl)s1 [Cmpd 388],< 0.1
5,O=C(c1cccs1)n1nc(-c2cccnc2)nc1NCc1ccc(F)cc1 [Cmpd 376],1 to 10
6,O=C(c1ccoc1)n1nc(-c2cccnc2)nc1NCc1ccc(F)cc1 [Cmpd 372],1 to 10
7,O=C(c1ccccc1Cl)n1nc(-c2cccs2)nc1NCc1ccccc1 [Cmpd 396],0.1 to 1
8,CCC(=O)n1nc(-c2cccnc2)nc1NCc1ccc(F)cc1 [Cmpd 7],10 to 100
9,COc1ccc(CNc2nc(-c3cccnc3)nn2C(=O)Cc2ccccc2)cc1 [Cmpd 327],10 to 100
10,COc1ccccc1C(=O)n1nc(-c2ccccc2)nc1NCc1nccs1 [Cmpd 333],> 100
11,O=C(c1ccco1)n1nc(-c2cccnc2)nc1NCc1ccc(F)cc1 [Cmpd 370],1 to 10
12,COc1ccccc1C(=O)n1nc(-c2ccc(N3CCOCC3)cc2)nc1NCc1ccc(Cl)s1 [Cmpd 389],1 to 10
13,CCC(=O)n1nc(-c2ccncc2)nc1NCc1ccc(F)cc1 [Cmpd 318],> 100
14,CCCC(=O)n1nc(-c2ccccn2)nc1NCc1ccccc1 [Cmpd 347],10 to 100
15,O=C(c1ccccc1)n1nc(-c2cccnc2)nc1NCc1ccc(F)cc1 [Cmpd 359],0.1 to 1
16,O=C(c1cccs1)n1nc(-c2ccccn2)nc1NCc1ccccc1 [Cmpd 404],1 to 10
17,O=C(c1ccoc1)n1nc(-c2ccncc2)nc1NCc1ccccc1 [Cmpd 402],10 to 100
18,CCC(=O)n1nc(-c2ccccn2)nc1NCc1ccc(F)cc1 [Cmpd 307],10 to 100
19,COc1ccccc1C(=O)n1nc(C2CCOCC2)nc1NCc1ccc(Cl)s1 [Cmpd 385],0.1 to 1
20,CCCC(=O)n1nc(-c2ccccn2)nc1NCc1ccc(OC)cc1 [Cmpd 324],10 to 100
21,COc1ccc(CNc2nc(-c3ccccn3)nn2C(=O)c2ccsc2)cc1 [Cmpd 380],1 to 10
22,CC(C)(C)C(=O)n1nc(-c2ccco2)nc1NCc1ccc(F)cc1 [Cmpd 300],10 to 100
